Data on 1 compound can be found in patent publication US20080108548A1, “Food Composition For Rapidly Attenuating Inflammatory Responses” (priority 2004, published 2008).

Molecules are shown by their SMILES.

The data set relates to rats subjected to hemorrhagic shock. The procedure: Using the non-lethal hemorrhagic shock model as described earlier (Luyer et al., Ann. Surg. 239:257-264, 2004; Luyer et al. Shock 21:65-71, 2004) rats were anesthetised, the femoral artery was dissected and cannulated. Mean arterial pressure (MAP) and heart rate were continuously recorded for 50 min. At the time of shock (t=0), 2.1 ml blood per 100 g body weight was taken at a rate of 1 ml/min (34-40% of total blood volume). At 45 min before induction of hemorrhagic shock, rats were subjected to vagotomy or sham vagotomy. In vagotomised animals a ventral cervical incision was made and both vagal trunks exposed. The vagus nerve was ligated at both ends using 4-0 silk suture and divided. In sham-operated animals, both vagal trunks were exposed, but the vagus nerve was not ligated and divided.
Before the experiments, 18 rats were fasted, 18 were fed with low-fat feed (6.9 en % protein, 75.4 en % carbohydrate, 16.7 en % fat) and 18 were fat with a high-fat feed according to the invention (6.9 en % protein, 40.9 en % carbohydrate, 52.2 en % fat). The low-fat and high-fat feeds were isocaloric. 3 ml was given at 18 h before hemorrhagic shock, and 0.75 ml at 2 h and 45 min before hemorrhagic by oral gavage. Fasted and high-fat fed rats underwent vagotomy or sham vagotomy. To investigate the role of CCK, six high-fat fed animas were injected i.v. with CCK-A (500 μg/kg) and CCK-B (500 μg/kg) receptor antagonists and six with control vehicle 25 min before induction of shock. […] At 90 min after hemorrhagic shock, blood was taken and segments of small bowel were harvested for determination of gut permeability. Plasma was separated by centrifugation, frozen immediately and stored until analysis.

Setting [1] is: high-fat fed rats given the blocker i.v. 25 min before shock, compared to high-fat controls.
Setting [2] is: high-fat rats treated with chlorisondamine versus chlorisondamine-treated fasted rats.

Take `C[N+](C)(C)CC[N+]1(C)Cc2c(Cl)c(Cl)c(Cl)c(Cl)c2C1` [chlorisondamine]: under setting [1], the “bacterial translocation to distant organs” value was “increased” and the plasma endotoxin result is given as “elevated”. Where the note is “high-fat fed sham-vagotomised rats, i.v. 25 min before shock”, the “inhibitory effect of high-fat enteral nutrition on circulating TNF-α” value is “abrogated”. Also, under setting [2], the IL-6 levels result was “comparable” and the TNF-α levels entry was “comparable”. Also, for the setting “rat, in vivo”, the MAP result was “significantly lower” and the “additional hypotension or changes in heart rate” value was “did not cause”. Also, the “decrease in MAP associated with administration” value (rat, in vivo, iv) was 100 to 65 mm Hg.
